Experimental data: patent US7910622B2, “Modulation of bacterial quorum sensing with synthetic ligands” (Wisconsin Alumni Research Foundation, priority 2007, dated 2011)
“Also recorded” adds a separate entry of the source. Read-outs that look alike come from different tables or passages of the source.

Key:
[1] = target: T1, LasR (Pseudomonas aeruginosa, UniProt P25084); experiment: cell-based; conditions: for E. coli-LasR Activation [%]: 5 μM ligand; for E. coli-LasR Activation [%] / activation at 5 µM: E. coli DH5α (pJN105L pSC11), normalized to OdDHL; for activation at 5 µM: read-out: E. coli-LasR Activation [%], 5 μM ligand
T1 construct: expressed in transfected cells; host or cells: E. coli DH5α (pJN105L pSC11), arabinose-induced
T1 sequence (P25084 whole entry): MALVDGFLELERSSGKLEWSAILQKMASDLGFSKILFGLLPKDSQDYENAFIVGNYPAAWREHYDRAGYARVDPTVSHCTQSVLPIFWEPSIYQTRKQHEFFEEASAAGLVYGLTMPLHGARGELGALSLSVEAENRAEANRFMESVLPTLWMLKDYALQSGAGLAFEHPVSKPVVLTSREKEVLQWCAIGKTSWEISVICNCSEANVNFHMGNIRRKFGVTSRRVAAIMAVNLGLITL
Outline: (§1)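 E. coli DH5α carrying pJN105L/pSC11 grown to OD600 0.3, LasR expression induced with arabinose (4 mg/mL), then incubated with AHLs at 37 °C to OD600 0.45. LasR activity read by β-galactosidase reporter assay; IC50/EC50 from sigmoidal dose-response fits.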

[2] = target: T2, LuxR (Aliivibrio fischeri, UniProt P35327); experiment: cell-based; assay type: cell-based, Vibrio fischeri; conditions: for V. fischeri-LuxR Inhibition [%]: 5 μM synthetic ligand against 5 μM OHHL; for V. fischeri-LuxR Inhibition [%] / inhibition at 5 µM: V. fischeri ES114 (Δ-luxI), normalized to OHHL; for IC50: LuxR IC50, determined against 5 μM OHHL; for inhibition at 5 µM: read-out: V. fischeri-LuxR Inhibition [%], 5 μM synthetic ligand against 5 μM OHHL
T2 construct: a Δ-luxI derivative of V. fischeri ES114, in which the native lux operon behaves as the bioluminescent reporter; endogenous in cells; host or cells: V. fischeri ES114 (Δ-luxI)
T2 sequence (P35327 whole entry): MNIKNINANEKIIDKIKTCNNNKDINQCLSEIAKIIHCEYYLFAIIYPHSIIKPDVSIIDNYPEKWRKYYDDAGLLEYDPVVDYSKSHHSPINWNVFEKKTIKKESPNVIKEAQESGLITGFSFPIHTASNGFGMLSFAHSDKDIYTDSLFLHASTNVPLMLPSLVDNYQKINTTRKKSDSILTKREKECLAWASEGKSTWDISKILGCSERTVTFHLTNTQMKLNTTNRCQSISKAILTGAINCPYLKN
Outline: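 Whole-cell luminescence reporter in V. fischeri ES114 (WT, Δ-luxI or Δ-luxR) or E. coli, overnight cultures diluted 1:10 and grown with compound at RT (E. coli 30° C) to OD600 0.35-0.4 (4-6 h). Luminescence normalized to cell density, triplicates; EC50/IC50 from sigmoidal fit.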

[3] = target: T1, LasR; experiment: cell-based; assay type: cell-based; conditions: for inhibition at 5 µM: read-out: E. coli-LasR Inhibition [%], 5 μM synthetic ligand against 7.5 nM OdDHL; for inhibition at 5 µM / E. coli-LasR Inhibition [%]: E. coli DH5α (pJN105L pSC11), normalized to OdDHL; for E. coli-LasR Inhibition [%]: 5 μM synthetic ligand against 7.5 nM OdDHL
Outline: as §1

[4] = test system: elastase B production; experiment: microbe, parasite or virus in culture; assay type: cell-based, Pseudomonas aeruginosa; conditions: for inhibition at 200 µM: Pseudomonas aeruginosa, PAO1, read-out: elastase B production inhibition; for elastase B production inhibition: Example 2, concentration not stated (20 or 200 tested)
Method: Elastase B production assay in P. aeruginosa. Elastase B activity in P. aeruginosa was measured according to a previously reported method, with the following modifications. P. aeruginosa PAO1 was grown overnight in LB media at 37° C., after which it was diluted to an OD600=0.1. Portions (2 mL) of this culture was added to test tubes containing synthetic compounds to give final concentrations of 20 μM or 200 μM and incubated for 12-14 h at 37° C. with 200 rpm shaking. The OD600 was measured for each tube, after which the contents of the tubes were filtered through a […] Whatman filter to remove all cellular matter. A 100 μL-aliquot of the supernatant was added to 900 μL of an Elastin Congo Red Solution (5 mg of Elastin Congo red substrate per 1 mL of 100 mM Tris-HCl, 1 mM CaCl2 (pH 7.2)) and incubated for 12 h at 37° C. with 250 rpm shaking. The contents of these tubes were then filtered in order to remove unreacted Elastin Congo red substrate. Elastase B activity was then calculated (normalized) by dividing the absorbance of the cleaved Congo red (OD492) by the cell density (OD600 of the cells before first filtration).
Elastase B production assay in P. aeruginosa. Elastase B activity in P. aeruginosa was measured according to a previously reported method, with the following modifications. P. aeruginosa PAO1 was grown overnight at 37° C. and then diluted 1:10 with fresh LB medium. Portions (2 mL) of this culture were added to test tubes containing synthetic compounds to give final compound concentrations of 20 μM or 200 μM. The tubes were incubated for 12-14 h at 37° C. The OD600 was measured for each tube, after which the contents of the tubes were filtered through a 0.2 μm Whatman filter to remove all cellular matter. A 100 μL aliquot of the supernatant was added to 900 μL of an elastin-Congo red solution (5 mg of elastin-Congo red substrate per 1 mL of buffer (100 mM Tris-HCl, 1 mM CaCl2, pH 7.2)) and incubated for 12 h at 37° C. with 250 rpm shaking. The contents of these tubes were then filtered in order to remove unreacted elastin-Congo red substrate, and the supernatant containing cleaved Congo red was isolated. A 200 μL aliquot of the supernatant was added to a 96-well multititer plate, and the OD492 was measured. Elastase B activity was calculated by dividing the absorbance of the cleaved Congo red solution (OD492) by the cell density (OD600 of the cells before first filtration).

[5] = determined against 7.5 nM OdDHL, read-out: LasR IC50

Compound	E. coli-LasR Activation [%] [1] [%]	V. fischeri-LuxR Inhibition [%] [2] [%]	IC50 [3, 5] [µM]	IC50 [2] [µM]	inhibition at 5 µM [2] [%]	inhibition at 5 µM [3] [%]	inhibition at 200 µM [4] [%]	activation at 5 µM [1] [%]	E. coli-LasR Inhibition [%] [3] [%]	elastase B production inhibition ([4]; P. aeruginosa PAO1)	other results
3-nitro PHL [B17]	11	−15	0.61								LasR: concentration at which the compound elicits its maximal inhibition (value in parentheses) ([3]; against 7.5 nM OdDHL, dose response curve did not reach 100% inhibition): 2.0 µM; activation of elastase B production at high concentration ([4]; P. aeruginosa PAO1, 10-fold higher concentration (200 vs 20)): activate elastase B production; also recorded: capable of both inhibiting and activating elastase B production
O=C(Cc1ccc(Br)cc1)N[C@H]1CCOC1=O [compound 8, N-(4-bromo-phenylacetanoyl)-L-homoserine lactone, reference compound]	0			3.7	~76	~25	77				IC50 ([3]; read-out: LasR IC50, determined against 7.5 nM OdDHL): 3.89 µM
O=C(Cc1ccc(-c2ccccc2)cc1)N[C@H]1CCOC1=O [C18, 4-phenyl PHL]				1.06		20	4	0			Activation (%) ([1]; E. coli-LasR, Library C primary agonism screen): 0%; Inhibition (%) ([2]; V. fischeri-LuxR, Library C primary antagonism screen): 79%
O=C(CCCc1c[nH]c2ccccc12)N[C@H]1CCOC1=O [A18, indole AHL, reference compound]	3	72	8.38						36	~67%	
O=C(Cc1ccc(Br)cc1)N[C@H]1CCOC1=O [A17, 4-bromo-phenylacetanoyl HL, reference compound]		79						0	28	ca. 76%	IC50 [3]: 3.89 µM
O=C(Cc1ccc(-c2ccccc2)cc1)NC1CCOC1=O (centres unmarked) [B21, 4-phenyl PHL]				1.06	~70	20		0		poorly antagonized elastase B production	
